Data from US20100297692A1, “REACTION MEDIUM FOR DETECTING AND/OR IDENTTIFYING STAPHYLOCCOUS AUREUS” (BIOMERIEUX, priority 2007, published 2010).

Tests used:
Experiment in all cases: β-D-ribosidase substrates in Columbia agar, colored or fluorescent colonies
S. aureus (MRSA) = assay type: cell-based, Staphylococcus aureus
Procedure: (§1) The media hereinafter were prepared in 200 ml of a Columbia agar base (Oxoid), in combination with the chromogenic β-D-ribosidase substrates. The various substrates and also the concentrations and the additives used in the media are described in Table 1 below:
(§2) The β-D-ribosidase substrates are solubilized in DMSO and added to the media so as to obtain the concentrations indicated in Table 1.
(§3) 191 bacterial strains were inoculated onto each of the media using a suspension at 0.5 MacFarland diluted to 1/1000. The dishes were incubated at 37° C. and then read.
(§4) The media were distributed into Petri dishes, then inoculated with approximately 100 000 CFU, then incubated at 37° C. for 48 h. The colonies formed were examined visually after incubation times of 18, 24 and 48 hours.
(§5) The stock collection of 191 strains comprised: […], 48 Staphylococcus spp, 61 Enterococcus spp and 3 alpha-hemolytic Streptococcus.

S. aureus (MSSA) = assay type: cell-based, Staphylococcus aureus
Procedure: as §1, §2, §3, §4, §5

[1] = test system: Coagulase-negative Staphylococci; assay type: cell-based, Staphylococcus spp; conditions: Coagulase-negative Staphylococci
Procedure: as §1, §2, §3, §4, §5

Micrococcus luteus = assay type: cell-based
Procedure: [The procedure below names another organism; the source lists this organism under the same test.] as §1, §2, §3, §4, §5

Enterococci = assay type: cell-based, Enterococcus spp
Procedure: as §1, §2, §3, §4, §5

[2] = test system: Alpha-hemolytic streptococci; assay type: cell-based, alpha-hemolytic Streptococcus
Procedure: as §1, §2, §3, §4, §5

[3] = 400 mg/L + ammoniacal iron citrate 100 mg/l, 18 h
[4] = 400 mg/L + ammoniacal iron citrate 100 mg/l, 24 h
[5] = 400 mg/L + ammoniacal iron citrate 100 mg/l, 48 h

Cc1cc(=O)oc2cc(O[C@@H]3O[C@H](CO)[C@@H](O)[C@H]3O)ccc12 [4-MU-β-riboside, 4-Methylumbelliferyl-beta-D-riboside]
% of strains producing colored or fluorescent colonies (S. aureus (MRSA); 50 mg/L, 18 h): 97% | % of strains producing colored or fluorescent colonies (S. aureus (MRSA); 50 mg/L, 24 h): 97% | % of strains producing colored or fluorescent colonies (S. aureus (MRSA); 50 mg/L, 48 h): 97% | % of strains producing colored or fluorescent colonies (S. aureus (MSSA); 50 mg/L, 18 h): 100% | % of strains producing colored or fluorescent colonies (S. aureus (MSSA); 50 mg/L, 24 h): 100% | % of strains producing colored or fluorescent colonies (S. aureus (MSSA); 50 mg/L, 48 h): 100% | % of strains producing colored or fluorescent colonies ([1]; 50 mg/L, 18 h): 82% | % of strains producing colored or fluorescent colonies ([1]; 50 mg/L, 24 h): 82% | % of strains producing colored or fluorescent colonies ([1]; 50 mg/L, 48 h): 82% | % of strains producing colored or fluorescent colonies (Micrococcus luteus; 50 mg/L, 18 h): 0% | % of strains producing colored or fluorescent colonies (Micrococcus luteus; 50 mg/L, 24 h): 0% | % of strains producing colored or fluorescent colonies (Micrococcus luteus; 50 mg/L, 48 h): 0% | % of strains producing colored or fluorescent colonies (Enterococci; 50 mg/L, 18 h): 57% | % of strains producing colored or fluorescent colonies (Enterococci; 50 mg/L, 24 h): 57% | % of strains producing colored or fluorescent colonies (Enterococci; 50 mg/L, 48 h): 49% | % of strains producing colored or fluorescent colonies ([2]; 50 mg/L, 18 h): 0% | % of strains producing colored or fluorescent colonies ([2]; 50 mg/L, 24 h): 0% | % of strains producing colored or fluorescent colonies ([2]; 50 mg/L, 48 h): 0%

OC[C@H]1O[C@@H](Oc2c[nH]c3cc(Cl)ccc23)[C@H](O)[C@@H]1O [Pink-β-riboside, 6-Chloro-3-indoxyl-beta-D-riboside]
% of strains producing colored or fluorescent colonies (S. aureus (MRSA); 100 mg/L, 18 h): 91% | % of strains producing colored or fluorescent colonies (S. aureus (MRSA); 100 mg/L, 24 h): 96% | % of strains producing colored or fluorescent colonies (S. aureus (MRSA); 100 mg/L, 48 h): 100% | % of strains producing colored or fluorescent colonies (S. aureus (MRSA); 200 mg/L, 18 h): 84% | % of strains producing colored or fluorescent colonies (S. aureus (MRSA); 200 mg/L, 24 h): 94% | % of strains producing colored or fluorescent colonies (S. aureus (MRSA); 200 mg/L, 48 h): 100% | % of strains producing colored or fluorescent colonies (S. aureus (MSSA); 100 mg/L, 18 h): 64% | % of strains producing colored or fluorescent colonies (S. aureus (MSSA); 100 mg/L, 24 h): 64% | % of strains producing colored or fluorescent colonies (S. aureus (MSSA); 100 mg/L, 48 h): 100% | % of strains producing colored or fluorescent colonies (S. aureus (MSSA); 200 mg/L, 18 h): 57% | % of strains producing colored or fluorescent colonies (S. aureus (MSSA); 200 mg/L, 24 h): 64% | % of strains producing colored or fluorescent colonies (S. aureus (MSSA); 200 mg/L, 48 h): 100% | % of strains producing colored or fluorescent colonies ([1]; 100 mg/L, 18 h): 3% | % of strains producing colored or fluorescent colonies ([1]; 100 mg/L, 24 h): 3% | % of strains producing colored or fluorescent colonies ([1]; 100 mg/L, 48 h): 3% | % of strains producing colored or fluorescent colonies ([1]; 200 mg/L, 18 h): 3% | % of strains producing colored or fluorescent colonies ([1]; 200 mg/L, 24 h): 3% | % of strains producing colored or fluorescent colonies ([1]; 200 mg/L, 48 h): 6% | % of strains producing colored or fluorescent colonies (Micrococcus luteus; 100 mg/L, 18 h): 0% | % of strains producing colored or fluorescent colonies (Micrococcus luteus; 100 mg/L, 24 h): 0% | % of strains producing colored or fluorescent colonies (Micrococcus luteus; 100 mg/L, 48 h): 0% | % of strains producing colored or fluorescent colonies (Micrococcus luteus; 200 mg/L, 18 h): 0% | % of strains producing colored or fluorescent colonies (Micrococcus luteus; 200 mg/L, 24 h): 0% | % of strains producing colored or fluorescent colonies (Micrococcus luteus; 200 mg/L, 48 h): 0% | % of strains producing colored or fluorescent colonies (Enterococci; 100 mg/L, 18 h): 0% | % of strains producing colored or fluorescent colonies (Enterococci; 100 mg/L, 24 h): 0% | % of strains producing colored or fluorescent colonies (Enterococci; 100 mg/L, 48 h): 2% | % of strains producing colored or fluorescent colonies (Enterococci; 200 mg/L, 18 h): 0% | % of strains producing colored or fluorescent colonies (Enterococci; 200 mg/L, 24 h): 0% | % of strains producing colored or fluorescent colonies (Enterococci; 200 mg/L, 48 h): 0% | % of strains producing colored or fluorescent colonies ([2]; 100 mg/L, 18 h): 0% | % of strains producing colored or fluorescent colonies ([2]; 100 mg/L, 24 h): 0% | % of strains producing colored or fluorescent colonies ([2]; 100 mg/L, 48 h): 0% | % of strains producing colored or fluorescent colonies ([2]; 200 mg/L, 18 h): 0% | % of strains producing colored or fluorescent colonies ([2]; 200 mg/L, 24 h): 0% | % of strains producing colored or fluorescent colonies ([2]; 200 mg/L, 48 h): 0%

Dihydroxyflavone-beta-D-riboside [DHF-β-riboside]
% of strains producing colored or fluorescent colonies (S. aureus (MRSA); [3]): 100% | % of strains producing colored or fluorescent colonies (S. aureus (MRSA); [4]): 100% | % of strains producing colored or fluorescent colonies (S. aureus (MRSA); [5]): 100% | % of strains producing colored or fluorescent colonies (S. aureus (MSSA); [3]): 100% | % of strains producing colored or fluorescent colonies (S. aureus (MSSA); [4]): 100% | % of strains producing colored or fluorescent colonies (S. aureus (MSSA); [5]): 100% | % of strains producing colored or fluorescent colonies [1, 3]: 68% | % of strains producing colored or fluorescent colonies [1, 4]: 68% | % of strains producing colored or fluorescent colonies [1, 5]: 91% | % of strains producing colored or fluorescent colonies (Micrococcus luteus; [3]): 0% | % of strains producing colored or fluorescent colonies (Micrococcus luteus; [4]): 0% | % of strains producing colored or fluorescent colonies (Micrococcus luteus; [5]): 0% | % of strains producing colored or fluorescent colonies (Enterococci; [3]): 30% | % of strains producing colored or fluorescent colonies (Enterococci; [4]): 30% | % of strains producing colored or fluorescent colonies (Enterococci; [5]): 48% | % of strains producing colored or fluorescent colonies [2, 3]: 0% | % of strains producing colored or fluorescent colonies [2, 4]: 0% | % of strains producing colored or fluorescent colonies [2, 5]: 0%
